As a reminder, the MIC is the least concentration at which growth counts as inhibited.

We go through 1 molecule from patent US4650855A, “Glycopeptide antibiotic L 17046” (Gruppo Lepetit S.p.A., priority 1983, dated 1987).

Converted amounts (≈) assume the structure as drawn.

A short description of one data set: Solubility. It counts as physicochemical.
The subject of the next data set is gram-positive bacteria. The data set can be described thus: In vitro antibacterial activity, spectrum. It counts as cell-based. The protocol: (§1) Isosensitest broth (Oxoid) and Todd-Hewitt broth (Difco) were used for Staphylococci and Streptococci, respectively. Broth cultures were diluted so that the final inoculum was about 10^4 colony forming units/ml (CFU/ml).

Data set [1] in a line: Potentiometric titration profile. It counts as physicochemical. The conditions noted are these: methylcellosolve:water 4:1, titration with 0.01 N NaOH after excess 0.01 N HCl.
Data set [2] has as its system Streptococcus pyogenes C 203. In words: In vitro antibacterial activity, two-fold dilution method in microtiter system (MIC). It counts as cell-based. The following applies: Todd-Hewitt broth, inoculum about 10^4 CFU/ml, 18-24 h at 37° C. How it is done: as §1
Data set [3] relates to Streptococcus pneumoniae UC 41. The description is as above. The class given is cell-based. The following applies: Todd-Hewitt broth, inoculum about 10^4 CFU/ml, 18-24 h at 37° C. How it is done: as §1
The subject of data set [4] is Staphylococcus epidermidis ATCC 12228. The data set is described as above. The class given is cell-based. The conditions noted are these: Isosensitest broth, inoculum about 10^4 CFU/ml, 18-24 h at 37° C. How it is done: as §1
In data set [5] the test system is Staphylococcus aureus ATCC 6538. Described as above. It counts as cell-based. The conditions noted are these: Isosensitest broth, inoculum about 10^4 CFU/ml, 18-24 h at 37° C. How it is done: as §1
The subject of data set [6] is Streptococcus dysgalactiae ATCC 9926. The data set is described as above. The following applies: Todd-Hewitt broth, inoculum about 10^4 CFU/ml, 18-24 h at 37° C. The class given is cell-based. How it is done: as §1
Data set [7] relates to Streptococcus faecalis ATCC 7080. The data set is described as above. The class given is cell-based. The conditions noted are these: Todd-Hewitt broth, inoculum about 10^4 CFU/ml, 18-24 h at 37° C. The protocol: as §1
In data set [8] the test system is coagulase-negative staphylocci (S. epidermidis, S. saprophyticus). The data set can be described thus: Effectiveness against coagulase-negative staphylococci. It counts as cell-based. The source says:
(§2) Its MICs […] against some clinical isolates of the above microbial strains are listed below in Table II: […]

Another data set concerns mice. In words: Approximate acute toxicity in mice. The following applies: acute toxicity (i.p.), administered by i.m. route as printed. It counts as in vivo.
Data set [9] deals with Staplylococcus aureus Tour. The data set can be described thus: In vitro antibacterial activity, two-fold dilution method in microtiter system (MIC). The class given is cell-based, Staphylococcus aureus. The protocol: as §1
The next data set deals with S. epidermidis L 1378. In words: MIC against clinical isolates of coagulase-negative staphylococci. The following applies: clinical isolate. It counts as cell-based. The protocol:
as §1, §2

A further data set deals with S. epidermidis L 1142. The description is as above. The class given is cell-based. The following applies: clinical isolate, methicillin-resistant strain. The protocol:
as §1, §2

The next data set concerns S. epidermidis L 785. Described as above. It counts as cell-based. The conditions noted are these: clinical isolate, methicillin-resistant strain. How it is done: as §1, §2
A further data set has as its system S. epidermidis L 835. The description is as above. The class given is cell-based. The following applies: clinical isolate, methicillin-resistant strain. How it is done: as §1, §2
For a further data set, the system named is S. saprophyticus L 1141. The description is as above. The class given is cell-based. The following applies: clinical isolate. The protocol: as §1, §2

Regarding `CC(=O)N[C@@H]1[C@@H](O[C@H]2c3ccc(c(Cl)c3)Oc3cc4cc(c3O)Oc3ccc(cc3Cl)C[C@@H]3NC(=O)[C@@H](N)c5ccc(O)c(c5)Oc5cc(O)cc(c5)[C@@H](NC3=O)C(=O)N[C@@H]4C(=O)N[C@@H]3C(=O)N[C@H]2C(=O)N[C@@H](C(=O)O)c2cc(O)cc(O)c2-c2cc3ccc2O)O[C@@H](CO)[C@H](O)[C@H]1O` (stereo in doubt) [antibiotic L 17046], the solubility entry is given as “insoluble” in “Solubility” (in highly concentrated mineral acids); “sligltly soluble” in the data set “Solubility” (in methanol); “freely soluble” in the data set “Solubility” (in water at pH>8.0, dimethylformamide, dimethylsulfoxide, propyleneglycol and methylcellosolve). In addition, the “in vitro antibacterial activity (spectrum)” value with gram-positive bacteria is on record as “mainly active against gram-positive bacteria”. Also, the “pH1/2 value, third titration slope” value in data set [1] (five equivalents) came out at 11. Further, the “pH1/2 value, first titration slope” value in [1] (one equivalent) was 5.0. Also, the “pH1/2 value, second titration slope” value in data set [1] (one equivalent) is reported as 7.0. For the same molecule, the MIC was found to be 1.6 µg/mL (≈ 1.14 µM) in [2]; 1.6 µg/mL (≈ 1.14 µM) in data set [3]; 0.05 µg/mL (≈ 0.0357 µM) in [4]; 0.2 µg/mL (≈ 0.143 µM) in data set [5]; 0.8 µg/mL (≈ 0.571 µM) in data set [6]; 1.6 µg/mL (≈ 1.14 µM) in data set [7]. The minimum inhibitory concentration (MIC) in [9] (Isosensitest broth + 30% bovine serum) is 0.4 µg/mL; in [9] (Isosensitest broth, inoculum about 10^4 CFU/ml, 18-24 h at 37° C.), 0.2 µg/mL (≈ 0.143 µM); against S. epidermidis L 1378, 0.05 µg/mL (≈ 0.0357 µM); in the data set on S. epidermidis L 1142 it was 0.1 µg/mL (≈ 0.0713 µM); with S. epidermidis L 785 it was 0.05 µg/mL (≈ 0.0357 µM); against S. epidermidis L 835, 0.1 µg/mL (≈ 0.0713 µM). The molecule also came in with an MIC against S. saprophyticus L 1141 of 0.1 µg/mL (≈ 0.0713 µM). Besides, in data set [8], the “effectiveness against coagulase-negative staphylococci” value was “particularly effective”. Moreover, the “approximate LD50” value in the data set with mice is “about 850 mg/kg”.
